Test results: patent US20240182561A1, “CALCIUM VOLTAGE-GATED CHANNEL AUXILIARY SUBUNIT GAMMA 1 (CACNG1) BINDING PROTEINS AND CACNG1-MEDIATED DELIVERY TO SKELETAL MUSCLE” (Regeneron Pharmaceuticals, Inc., priority 2022, published 2024)

Key:
HEK293 = test: Indirect (secondary) cell killing assay; assay type: cell-based, human; details: Table 11-3; maximum % kill
Description: To test the ability of anti-CACNG1 antibodies described herein to bind, internalize, and deliver payloads, cell binding and indirect cell killing assays were developed with primary human skeletal myoblasts (Cook Myosite Cat #SkMDC SK-1111), C2C12 mouse myoblasts (ATCC Cat #CRL-1772), and HEK293 cells engineered to express human and mouse CACNG1 (HEK293/hCACNG1 and HEK293/mCACNG1, respectively). To generate the HEK293/hCACNG1 and HEK293/mCACNG1 cell lines, FuGEGE 6 (Promega, Cat #E2691/5/3) was used to transfect HEK293HZ cells with a human CACNG1 (hCACNG1; amino acid M1-H222, Accession #NP_000718.1) or mouse CACNG1 (mCACNG1; amino acid M1-H223, Accession #NP_031608.1) expression vector. HEK293HZ is a highly transfectable subclone of HEK293 cells (1) authenticated via STIR (short tandem repeat) profiling to be 81% identical to HEK293 cells sourced from ATCC). […]
(§1) An indirect cell killing assay was used to assess the ability of anti-CACNG1 antibodies to internalize and deliver payloads into cells. In vitro cytotoxicity of the anti-CACNG1 antibodies alone or in combination with Fab anti-human Fc or Fab anti-mouse Fc secondary antibodies conjugated to Duocarmycin DM (Moradec, Cat #AH-202-DD-50 or Cat #AM-202-DD-50) were evaluated using the CellTiter-Glo 2.0 Assay Kit (Promega, Cat #G9243), in which the quantity of ATP present is used to determine the number of viable cells in culture. […]

HEK293/hCACNG1 = molecular target: T1, HEK293/hCACNG1 (Homo sapiens, UniProt Q06432); test: Indirect (secondary) cell killing assay; assay type: cell-based; details: Table 11-3; maximum % kill = 100 - minimum percent viability
T1 construct: human CACNG1 (hCACNG1); expressed in transfected cells
T1 sequence (Q06432 whole entry): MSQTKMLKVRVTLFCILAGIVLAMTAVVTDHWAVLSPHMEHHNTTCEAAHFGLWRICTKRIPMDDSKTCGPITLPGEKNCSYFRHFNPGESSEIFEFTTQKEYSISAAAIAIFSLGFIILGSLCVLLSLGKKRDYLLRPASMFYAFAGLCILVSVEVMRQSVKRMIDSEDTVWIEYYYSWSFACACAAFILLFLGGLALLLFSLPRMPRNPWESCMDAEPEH
Description: (§2) To test the ability of anti-CACNG1 antibodies described herein to bind, internalize, and deliver payloads, cell binding and indirect cell killing assays were developed with primary human skeletal myoblasts (Cook Myosite Cat #SkMDC SK-1111), C2C12 mouse myoblasts (ATCC Cat #CRL-1772), and HEK293 cells engineered to express human and mouse CACNG1 (HEK293/hCACNG1 and HEK293/mCACNG1, respectively). To generate the HEK293/hCACNG1 and HEK293/mCACNG1 cell lines, FuGEGE 6 (Promega, Cat #E2691/5/3) was used to transfect HEK293HZ cells with a human CACNG1 (hCACNG1; amino acid M1-H222, Accession #NP_000718.1) or mouse CACNG1 (mCACNG1; amino acid M1-H223, Accession #NP_031608.1) expression vector. HEK293HZ is a highly transfectable subclone of HEK293 cells (1) authenticated via STIR (short tandem repeat) profiling to be 81% identical to HEK293 cells sourced from ATCC). The HEK293HZ cell line was maintained in DMEM+10% FBS+1% L-glutamine/penicillin/streptomycin, while HEK293/hCACNG1 and HEK293/mCACNG1 cell lines were maintained in DMEM+10% FBS+1% L-glutamine/penicillin/streptomycin+500 ug/mL G418. Human skeletal myoblasts (HuSKM) were maintained in MyoTonic Basal Media (Cook Myosite Cat #MB-2222) supplemented with MyoTonic Growth Supplement (Cook Myosite Cat #MS-3333) and grown in a 37° C. incubator with 5% CO2. HuSKM were seeded in collagen-coated 96-well plates (Greiner Bio-One #655956) at 8,500 cells/well and grown for 24 hours. The growth media was changed to MyoTonic Differentiation Media (Cook Myosite Cat #MD-5555) and replaced every 2 days. Myotubes were assayed after 6 days of differentiation. C2C12 mouse myoblasts were maintained in DMEM with 10% FBS and 1% penicillin-streptomycin supplement and grown in a 37° C. incubator with 5% CO2. C2C12 cells were seeded in collagen-coated 96-well plates (Greiner Bio-One #655956) at 10,000 cells/well for the cell binding assay and 5,000 cells/well for the cell killing assay. After 24 hours, growth media was replaced with differentiation media (DMEM with 2% horse serum) and placed in a 37° C. incubator with 7.5% CO2. C2C12 myotubes were assayed after 3 days of differentiation. […]
as §1

[1] = test system: primary human skeletal myotubes (HuSKM); test: Indirect (secondary) cell killing assay; assay type: cell-based; details: Table 11-3; maximum % kill
Description: as §2, §1

mouse myotubes (C2C12) = test: Indirect (secondary) cell killing assay; assay type: cell-based; details: Table 11-3; maximum % kill
Description: as §2, §1

HEK293/mCACNG1 = molecular target: T2, HEK293/mCACNG1 (Mus musculus, UniProt O70578); test: Indirect (secondary) cell killing assay; assay type: cell-based; details: Table 11-3; maximum % kill
T2 construct: mouse CACNG1 (mCACNG1); expressed in transfected cells
T2 sequence (O70578 1-223): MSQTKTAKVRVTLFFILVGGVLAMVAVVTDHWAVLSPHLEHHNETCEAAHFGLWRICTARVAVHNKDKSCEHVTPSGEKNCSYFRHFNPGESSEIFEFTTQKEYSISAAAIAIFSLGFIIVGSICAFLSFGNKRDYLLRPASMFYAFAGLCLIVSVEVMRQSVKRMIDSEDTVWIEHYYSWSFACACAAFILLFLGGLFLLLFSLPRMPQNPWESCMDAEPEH
Description: as §2, §1

Dmpk = test: In vivo siRNA durability of Dmpk knockdown; parameters: species or system mouse; details: 1 week post treatment, 3 and 5 mg/kg siRNA; FIGS. 13A-13E
Description: All doses were adjusted for drug-to-antibody (DAR) ratio, i.e., mice were dosed based on siRNA amount for body weight, as determined by liquid chromatography electrospray ionization approaches described herein. […] Mice were sacrificed at either 1 week, 3 weeks, or 6 weeks post dosing. […] The following tissues were placed into RNAlater (ThermoFisher Catalog #AM7021): gastrocnemius, soleus, quadricep, tibialis anterior, diaphragm, heart, liver, spleen, kidney. Tissues were allowed to sit in RNAlater for at least 2 hours at room temperature before being transferred to −20° C. Total RNA was purified using MagMAX™-96 for Microarrays Total RNA Isolation Kit Catalog #AM1839 (Ambion by Life Technologies) according to manufacturer's specifications. […] Samples were then reverse transcribed using SuperScript VILO MasterMix (Invitrogen Catalog #11755-250) according to manufacturer's specifications. For TaqMan gene expression analysis, TaqMan Gene Expression MasterMix (ThermoFisher Scientific Ref #4369016) was used according to manufacturer's specifications. The probes used in the assay were as followed: Dmpk FAM (ThermoFisher Mm00446261_m1) and Rplp0 (ThermoFisher Mm01974474_gH).

COC(=O)c1cc2c([nH]1)C(=O)C=C1N(C(=O)c3cc4cc(OC)c(OC)c(OC)c4[nH]3)C[C@H]3C[C@]123 [Duocarmycin]
% KILL (HEK293): 99.6%
% KILL (HEK293/hCACNG1): 99.7%
% KILL [1]: 97.3%
% KILL (mouse myotubes (C2C12)): 99.6%
% KILL (HEK293/mCACNG1): 99.8%

naked siRNA: siRNA against DMPK (siRNA1), SEQ ID NO: 416 sense and 417 antisense, used unconjugated as control (sense CCUCGGUAUUUAUUGUCUA; antisense UAGACAAUAAAUACCGAGG; listed as RNA, further chemistry not given here)
Dmpk knockdown in skeletal muscle (Dmpk): no noticeable knockdown
